Laboratory results as given in patent publication US20070224657A1, “Distribution of PON1 as a marker of lipid related disorders” (priority 2006, published 2007).
Like-named read-outs stand apart in the source and are kept apart here.

Assays:
[1] = target: T1, PON1 (Homo sapiens, UniProt P27169); details: inhibitor 200 μM
Protocol: Arylesterase activity: Arylesterase activity was determined using 5 μl serum or 10 μl of the HDL or LPDS fraction in a total volume of 1 ml of 50 mM Tris-HCL, pH 8.0 containing 1 mM CaCl2 and 1 mM phenyl acetate. The increase in OD at 270 nm was monitored for 1 minute. One unit is defined as 1 μmol of phenyl actetate hydrolyzed per ml per minute (26).

[2] = target: T1, PON1; details: inhibitor or antibody (diluted 1:10, v:v) added to the fractions; data not shown
[3] = system: J774 A.1 macrophages; experiment: Macrophage cholesterol efflux mediated by HDL or LPDS; assay type: cell-based, murine; details: Mus musculus
Protocol: HDL and LPDS were isolated from 3 healthy subjects by ultracentrifugation. […] The cells were also incubated with HDL or LPDS fractions that were preincubated for 1 hour at 37° C. with the PON1 inhibitor 2-hydroxyquinoline (200 μM), or with HDL and LPDS that were enriched with evolved PON1 (50 paraoxonase U/ml). HDL or LPDS-mediated cholesterol efflux was then determined. Results are given as mean±S.D of three different experiments *p<0.01 vs. HDL, #p<0.01 vs. LPDS.
Cells: J774 A.1 murine macrophage cells were purchased from the American Tissue Culture Collection (ATCC, Rockville, Md.). The cells were grown in Dulbecco's modified Eagle's medium (DMEM) containing 5% FCS and 100 U penicillin/ml, 100 μg streptomycin/ml, and 2 mM glutamine.
Macrophage Cholesterol efflux determination: J774 A.1 macrophages were incubated with [^3H]-labeled cholesterol (2 μCi/ml) for 1 hour at 37° C., followed by cell wash in ice-cold PBS (×3) and a further incubation in the absence or presence of HDL or LPDS (5 paraoxonase units/ml)) for 3 hours at 37° C. […] Cellular and medium [^3H]-labeled cholesterol was quantitated and the percentage of cholesterol efflux was calculated [the ratio of [^3H]-label in the medium*100/([^3H]-label in the medium+[^3H]-label in the cells), 18]. […]

T1 sequence (P27169 whole entry): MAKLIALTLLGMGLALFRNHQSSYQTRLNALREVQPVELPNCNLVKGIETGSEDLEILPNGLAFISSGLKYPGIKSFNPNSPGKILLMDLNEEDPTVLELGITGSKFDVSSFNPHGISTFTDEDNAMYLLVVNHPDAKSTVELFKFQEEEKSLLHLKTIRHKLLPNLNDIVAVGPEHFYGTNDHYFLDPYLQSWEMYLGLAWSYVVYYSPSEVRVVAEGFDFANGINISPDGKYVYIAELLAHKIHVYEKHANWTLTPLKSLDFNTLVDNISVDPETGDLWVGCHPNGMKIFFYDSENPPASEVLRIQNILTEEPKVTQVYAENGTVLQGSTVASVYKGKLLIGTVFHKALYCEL

## Oc1ccc2ccccc2n1 [2-hydroxyquinoline]
[1]; HDL fraction
  reduction in HDL arylesterase activity: 60%
[1]; HDL fraction, without inhibitor 22.4±1.5
  HDL arylesterase activity with inhibitor: 9.0±1.0 units/ml
[1]; LPDS fraction
  reduction in LPDS arylesterase activity: 76%
[1]; LPDS fraction, without inhibitor 2.9±0.5
  LPDS arylesterase activity with inhibitor: 0.7±0.7 units/ml
[2]
  paraoxonase activities in HDL and LPDS: significantly reduced
[3]; J774.A1, read-out: reduction of cholesterol efflux by HDL preincubated with the inhibitor
  inhibition at 200 µM: 25%
[3]; J774.A1, inhibitor 200 μM, vs non-treated LPDS, read-out: reduction of cholesterol efflux by LPDS preincubated with the inhibitor
  inhibition at 200 µM: 10%
